Data reported in US20240174727A1, “LONG-ACTING NATRIURETIC PEPTIDES AND USES THEREOF” (Eli Lilly and Company, priority 2022, published 2024).
Like-named read-outs stand apart in the source and are kept apart here. Numbered stars: 1 amine (or outer) side, 2 acyl side, 3 side chain; on linkers, the order of the positions; unused ones are H or OH. Bridge positions count the residues as written; N and C are the ends. Square brackets hold non-standard residues; d marks the D form. Peptide text beside a SMILES is read from it. * marks the point of attachment. PEG24 = NCCOCCOCCOCCOCCOCCOCCOCCOCCOCCOCCOCCOCCOCCOCCOCCOCCOCCOCCOCCOCCOCCOCCOCCOCCC(=O)O; C20 diacid = O=C(O)CCCCCCCCCCCCCCCCCCC(=O)*; γGlu = O=C(O)[C@H](CCC(=O)[*:2])N[*:1]; 4Pal = N[C@@H](Cc1ccncc1)C(=O)O; Dap = NC[C@H](N)C(=O)O; CH2 = C([*:1])[*:2]; βAla = NCCC(=O)O

Molecular target: T1, human NPRA (Homo sapiens, UniProt P16066)
T1 construct: Full-Length cDNA Cloning and Generation of Cell Lines Overexpressing Natriuretic Peptide Receptors (NPRs); expressed in transfected cells; host or cells: Jump-in T-Rex HEK293 cells, pJTI R4 CMV-TO MCS pA vector, tetracycline induction
T1 sequence (P16066 33-1061): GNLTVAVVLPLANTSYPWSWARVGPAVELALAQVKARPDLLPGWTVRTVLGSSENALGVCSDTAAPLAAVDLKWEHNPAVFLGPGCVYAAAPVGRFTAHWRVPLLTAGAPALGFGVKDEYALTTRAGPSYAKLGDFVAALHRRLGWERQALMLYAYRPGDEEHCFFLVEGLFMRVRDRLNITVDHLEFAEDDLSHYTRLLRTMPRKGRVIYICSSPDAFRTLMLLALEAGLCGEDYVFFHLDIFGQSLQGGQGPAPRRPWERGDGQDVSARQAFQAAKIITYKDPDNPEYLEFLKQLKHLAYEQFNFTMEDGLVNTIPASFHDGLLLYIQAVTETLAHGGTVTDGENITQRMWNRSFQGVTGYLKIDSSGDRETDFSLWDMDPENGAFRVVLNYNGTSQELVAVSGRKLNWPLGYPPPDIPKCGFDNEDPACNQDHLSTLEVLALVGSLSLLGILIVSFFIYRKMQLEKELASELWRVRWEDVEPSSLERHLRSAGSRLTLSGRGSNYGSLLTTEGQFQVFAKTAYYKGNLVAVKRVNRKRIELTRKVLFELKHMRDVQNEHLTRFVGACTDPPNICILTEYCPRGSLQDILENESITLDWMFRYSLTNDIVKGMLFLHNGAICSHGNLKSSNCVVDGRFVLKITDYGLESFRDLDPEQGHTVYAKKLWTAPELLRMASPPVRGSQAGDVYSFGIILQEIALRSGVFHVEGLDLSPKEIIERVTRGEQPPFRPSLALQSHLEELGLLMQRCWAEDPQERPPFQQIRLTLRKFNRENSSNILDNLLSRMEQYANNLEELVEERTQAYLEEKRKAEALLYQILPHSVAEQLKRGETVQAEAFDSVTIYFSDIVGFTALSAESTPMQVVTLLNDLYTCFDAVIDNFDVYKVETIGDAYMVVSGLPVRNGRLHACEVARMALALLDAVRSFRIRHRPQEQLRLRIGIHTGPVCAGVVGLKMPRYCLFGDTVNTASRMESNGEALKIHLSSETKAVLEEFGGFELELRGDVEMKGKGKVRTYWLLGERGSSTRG
Assay: Human NPRA cGMP activity assay (HTRF) in HEK293 cells overexpressing NPRA
Type: cell-based
Procedure, shortened: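 cGMP measured by HTRF and scaled between buffer (minimum) and 100 nM amidated rat ANP (maximum). Polypeptides in 10-fold steps from 10 μM to 1 pM, 0.5% DMSO, 0.5 mM IBMX, 40 min at room temperature, on induced NPRA-overexpressing HEK293 cells.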

[1] = cGMP Assay (EC50, pM) w/Casein hNPRA, assay buffer with 0.1% casein
[2] = assay buffer with 0.1% BSA, read-out: cGMP Assay (EC50, pM) w/BSA hNPRA
[3] = assay buffer with 0.1% casein, read-out: cGMP Assay (EC50, pM) w/Casein hNPRA
[4] = cGMP Assay (EC50, pM) w/BSA hNPRA, assay buffer with 0.1% BSA

Row | Compound | EC50 [1] | EC50 [2] | EC50 [3] | EC50 [4]
1 | {C20 diacid-γGlu}-EKEKEKG[PEG24]S[4Pal]RRSSCFGGRIDRIGHQSGLGCPSFRHGGPSSGAPPPS-NH2 (linker 15-31 via CH2) [Example 61] | 912 pM | – | – | –
2 | {C20 diacid-γGlu}-EKEKEKGEKPRSSCFG[Dap]RIDRIGHQSGLGCPSFRHGSPSSGAPPPS-NH2 (linker 14-30 via CH2) [Example 137] | – | 155000 pM | 769 pM | –
3 | CC[C@H](C)[C@@H]1NC(=O)[C@H](CCCNC(=N)N)NC(=O)[C@H](CC(=O)O)NC(=O)[C@H]([C@@H](C)CC)NC(=O)[C@H](CCCNC(=N)N)NC(=O)CNC(=O)CNC(=O)[C@H](Cc2ccccc2)NC(=O)[C@@H](NC(=O)[C@H](CO)NC(=O)[C@H](CO)NC(=O)[C@H](CCCNC(=N)N)NC(=O)[C@H](CCCNC(=N)N)NC(=O)[C@H](Cc2ccncc2)NC(=O)[C@H](CO)NC(=O)COCCOCCNC(=O)COCCOCCNC(=O)COCCOCCNC(=O)COCCOCCNC(=O)COCCOCCNC(=O)COCCOCCNC(=O)CNC(=O)[C@H](CCCCN)NC(=O)[C@H](CCC(=O)O)NC(=O)[C@H](CCCCN)NC(=O)[C@H](CCC(=O)O)NC(=O)[C@H](CCCCN)NC(=O)[C@H](CCC(=O)O)NC(=O)CC[C@H](NC(=O)CCCCCCCCCCCCCCCCCCC(=O)O)C(=O)O)CSCSC[C@@H](C(=O)N2CCC[C@H]2C(=O)N[C@@H](CO)C(=O)N[C@@H](Cc2ccccc2)C(=O)N[C@@H](CCCNC(=N)N)C(=O)N[C@@H](Cc2c[nH]cn2)C(=O)NCC(=O)NCC(=O)N[C@@H](CCCCN)C(=O)N[C@@H](CO)C(=O)N[C@@H](CO)C(=O)NCC(=O)N[C@@H](C)C(=O)N2CCC[C@H]2C(=O)N2CCC[C@H]2C(=O)N2CCC[C@H]2C(=O)N[C@@H](CO)C(N)=O)NC(=O)CNC(=O)[C@H](CC(C)C)NC(=O)CNC(=O)[C@H](CO)NC(=O)[C@H](CCC(N)=O)NC(=O)[C@H](Cc2c[nH]cn2)NC(=O)CNC1=O [Example 86] | – | 25200 pM | 1020 pM | –
4 | CC[C@H](C)[C@@H]1NC(=O)[C@H](CCCNC(=N)N)NC(=O)[C@H](CC(=O)O)NC(=O)[C@H]([C@@H](C)CC)NC(=O)[C@H](CCCNC(=N)N)NC(=O)CNC(=O)CNC(=O)[C@H](Cc2ccccc2)NC(=O)[C@@H](NC(=O)[C@H](CO)NC(=O)[C@H](CO)NC(=O)[C@H](CCCNC(=N)N)NC(=O)CCNC(=O)[C@H](CCCCN)NC(=O)[C@H](CCC(=O)O)NC(=O)CNC(=O)[C@H](CCCCN)NC(=O)[C@H](CCC(=O)O)NC(=O)[C@H](CCCCN)NC(=O)[C@H](CCC(=O)O)NC(=O)[C@H](CCCCN)NC(=O)[C@H](CCC(=O)O)NC(=O)CC[C@H](NC(=O)CCCCCCCCCCCCCCCCCCC(=O)O)C(=O)O)CSCSC[C@@H](C(=O)N2CCC[C@H]2C(=O)N[C@@H](CO)C(=O)N[C@@H](Cc2ccccc2)C(=O)N[C@@H](CCCNC(=N)N)C(=O)N[C@@H](Cc2c[nH]cn2)C(=O)NCC(=O)NCC(=O)N2CCC[C@H]2C(=O)N[C@@H](CO)C(=O)N[C@@H](CO)C(=O)NCC(=O)N[C@@H](C)C(=O)N2CCC[C@H]2C(=O)N2CCC[C@H]2C(=O)N2CCC[C@H]2C(=O)N[C@@H](CO)C(N)=O)NC(=O)CNC(=O)[C@H](CC(C)C)NC(=O)CNC(=O)[C@H](CO)NC(=O)[C@H](Cc2ccc(O)cc2)NC(=O)[C@H](Cc2c[nH]cn2)NC(=O)CNC1=O [Example 56] | – | – | – | 145000 pM
5 | CC[C@H](C)[C@@H]1NC(=O)[C@H](CCCNC(=N)N)NC(=O)[C@H](CC(=O)O)NC(=O)[C@H]([C@@H](C)CC)NC(=O)[C@H](CCCNC(=N)N)NC(=O)CNC(=O)CNC(=O)[C@H](Cc2ccccc2)NC(=O)[C@@H](NC(=O)[C@H](CO)NC(=O)[C@H](CO)NC(=O)[C@H](CCCNC(=N)N)NC(=O)CCNC(=O)[C@H](CCC(=O)O)NC(=O)[C@H](CCCCN)NC(=O)CNC(=O)[C@H](CCCCN)NC(=O)[C@H](CCC(=O)O)NC(=O)[C@H](CCCCN)NC(=O)[C@H](CCC(=O)O)NC(=O)[C@H](CCCCN)NC(=O)[C@H](CCC(=O)O)NC(=O)CC[C@H](NC(=O)CCCCCCCCCCCCCCCCCCC(=O)O)C(=O)O)CSCSC[C@@H](C(=O)N2CCC[C@H]2C(=O)N[C@@H](CO)C(=O)N[C@@H](Cc2ccccc2)C(=O)N[C@@H](CCCNC(=N)N)C(=O)N[C@@H](Cc2c[nH]cn2)C(=O)NCC(=O)NCC(=O)N2CCC[C@H]2C(=O)N[C@@H](CO)C(=O)N[C@@H](CO)C(=O)NCC(=O)N[C@@H](C)C(=O)N2CCC[C@H]2C(=O)N2CCC[C@H]2C(=O)N2CCC[C@H]2C(=O)N[C@@H](CO)C(N)=O)NC(=O)CNC(=O)[C@H](CC(C)C)NC(=O)CNC(=O)[C@H](CO)NC(=O)[C@H](Cc2ccc(O)cc2)NC(=O)[C@H](Cc2c[nH]cn2)NC(=O)CNC1=O [Example 58] | 1220 pM | – | – | 104000 pM
6 | CC[C@H](C)[C@@H]1NC(=O)[C@H](CCCNC(=N)N)NC(=O)[C@H](CC(=O)O)NC(=O)[C@H]([C@@H](C)CC)NC(=O)[C@H](CCCNC(=N)N)NC(=O)[C@H](CCCCN)NC(=O)CNC(=O)[C@H](Cc2ccccc2)NC(=O)[C@@H](NC(=O)[C@H](CO)NC(=O)[C@H](CO)NC(=O)[C@H](CCCNC(=N)N)NC(=O)CCNC(=O)[C@H](CCCCN)NC(=O)[C@H](CCC(=O)O)NC(=O)CCOCCOCCOCCOCCOCCOCCOCCOCCOCCOCCOCCOCCOCCOCCOCCOCCOCCOCCOCCOCCOCCOCCOCCOCCNC(=O)CNC(=O)[C@H](CCCCN)NC(=O)[C@H](CCC(=O)O)NC(=O)[C@H](CCCCN)NC(=O)[C@H](CCC(=O)O)NC(=O)[C@H](CCCCN)NC(=O)[C@H](CCC(=O)O)NC(=O)CC[C@H](NC(=O)CCCCCCCCCCCCCCCCCCC(=O)O)C(=O)O)CSCSC[C@@H](C(=O)N2CCC[C@H]2C(=O)N[C@@H](CO)C(=O)N[C@@H](Cc2ccccc2)C(=O)N[C@@H](CCCNC(=N)N)C(=O)N[C@@H](Cc2c[nH]cn2)C(=O)NCC(=O)NCC(=O)N2CCC[C@H]2C(N)=O)NC(=O)CNC(=O)[C@H](CC(C)C)NC(=O)CNC(=O)[C@H](CO)NC(=O)[C@H](CCC(N)=O)NC(=O)[C@H](Cc2c[nH]cn2)NC(=O)CNC1=O [Example 130] ({C20 diacid-γGlu}-EKEKEKG[PEG24]EK[βAla]RSSCFGKRIDRIGHQSGLGCPSFRHGGP-NH2; linker 15-31 via CH2) | – | 1270 pM | 669 pM | –
7 | {C20 diacid-γGlu}-EKEKEKGEKPRSSCFG[Dap]RIDRIGHYSGLGCPSFRHGSPSSGAPPPS-NH2 (linker 14-30 via CH2) [Example 136] | – | 100000 pM | 1380 pM | –
